Results published in the supplement of paper PMC10307832.

How the values were obtained:
Experiment in all cases: relative viability (nuclei count vs DMSO), 5 days (fraction); higher = more cells survive
Vandetanib + Palbociclib = compound: COc1cc2/c(=N/c3ccc(Br)cc3F)nc[nH]c2cc1OCC1CCN(C)CC1 [Vandetanib] + CC(=O)c1c(C)c2cnc(Nc3ccc(N4CCNCC4)cn3)nc2n(C2CCCC2)c1=O [Palbociclib] (partner 0.5 µM)
Method in brief: (§1)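 Lung cancer cell lines in 1536-well plates were dosed by pin tool the day after seeding, either with one drug alone or with a fixed anchor-drug dose plus five library-drug doses (not always all listed) in √10 steps. After 5 days, cells were fixed and their nuclei stained in one step (final 0.05% Triton X-100, 1% formaldehyde, 1 ug/ml Hoechst), then counted on 4× images. Relative viability is the nuclei count in treated wells divided by that in vehicle wells. Values are medians of duplicate plates.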

[1] = compound: C1=CC=C2C(=C1)N=C(S2)C(C#N)C3=NC(=NC=C3)NCCC4=CN=CC=C4 + CC(C)C[C@H](NC(=O)[C@H](Cc1ccccc1)NC(=O)c1cnccn1)B(O)O [Bortezomib] (partner 0.002 µM)
Method in brief: as §1

[2] = compound: C1=CC=C2C(=C1)N=C(S2)C(C#N)C3=NC(=NC=C3)NCCC4=CN=CC=C4 + COc1cc2c(Oc3ccc(NC(=O)C4(C(=O)Nc5ccc(F)cc5)CC4)cc3F)ccnc2cc1OCCCN1CCOCC1 [Foretinib] (partner 0.25 µM)
Method in brief: as §1

Vandetanib + Linsitinib = compound: COc1cc2/c(=N/c3ccc(Br)cc3F)nc[nH]c2cc1OCC1CCN(C)CC1 [Vandetanib] + C[C@]1(O)C[C@@H](c2nc(-c3ccc4ccc(-c5ccccc5)nc4c3)c3c(N)nccn32)C1 [Linsitinib] (partner 1 µM)
Method in brief: as §1

Cell Line | relative viability (Vandetanib + Palbociclib; first compound 0.02 µM) | relative viability (Vandetanib + Palbociclib; first compound 0.06325 µM) | relative viability (Vandetanib + Palbociclib; first compound 0.2 µM) | relative viability (Vandetanib + Palbociclib; first compound 0.6325 µM) | relative viability (Vandetanib + Palbociclib; first compound 2 µM) | relative viability ([1]; first compound 0.005 µM) | relative viability ([1]; first compound 0.01581 µM) | relative viability ([1]; first compound 0.05 µM) | relative viability ([1]; first compound 0.1581 µM) | relative viability ([1]; first compound 0.5 µM) | relative viability ([2]; first compound 0.005 µM) | relative viability ([2]; first compound 0.01581 µM) | relative viability ([2]; first compound 0.05 µM) | relative viability ([2]; first compound 0.1581 µM) | relative viability ([2]; first compound 0.5 µM) | relative viability (Vandetanib + Linsitinib; first compound 0.02 µM) | relative viability (Vandetanib + Linsitinib; first compound 0.06325 µM) | relative viability (Vandetanib + Linsitinib; first compound 0.2 µM) | relative viability (Vandetanib + Linsitinib; first compound 0.6325 µM) | relative viability (Vandetanib + Linsitinib; first compound 2 µM)
NCI-H838 | 0.219 | 0.227 | 0.243 | 0.216 | 0.219 | 0.641 | 0.834 | 0.841 | 1.05 | 0.752 | 0.981 | 1.04 | 0.99 | 0.928 | 0.926 | 1.02 | 1.07 | 1.02 | 1.01 | 1.01
NCI-H520 | 0.254 | 0.196 | 0.293 | 0.273 | 0.256 | 0.348 | 0.526 | 0.577 | 1.27 | 0.406 | 0.718 | 0.983 | 0.853 | 0.878 | 0.842 | 0.886 | 1.1 | 0.942 | 0.904 | 0.912
HOP-62 | 0.421 | 0.437 | 0.431 | 0.509 | 0.412 | 0.798 | 0.576 | 0.907 | 1.09 | 0.738 | 0.891 | 1.14 | 1.14 | 1.26 | 0.952 | 1.04 | 0.965 | 0.926 | 1.05 | 0.977
NCI-H1651 | 0.484 | 0.501 | 0.515 | 0.515 | 0.446 | 0.636 | 0.924 | 0.935 | 1.05 | 0.957 | 0.687 | 0.872 | 0.774 | 0.801 | 0.757 | 1 | 0.87 | 0.956 | 0.873 | 0.806
NCI-H460 | 0.147 | 0.157 | 0.189 | 0.148 | 0.166 | – | 1.09 | 1.08 | 1.42 | 0.609 | 0.969 | 1.15 | 1.06 | 1.08 | 1.08 | 0.733 | 0.758 | 0.0194 | 0.757 | 0.58
NCI-H1734 | 0.35 | 0.348 | 0.314 | 0.373 | 0.295 | 0.789 | 0.895 | 0.912 | 1.07 | 0.831 | – | 0.8 | 0.913 | 0.993 | 0.758 | 0.849 | 0.891 | 0.849 | 0.89 | 0.848
NCI-H1915 | 0.51 | 0.519 | 0.499 | 0.484 | 0.522 | 0.552 | 1.05 | 0.964 | 1.19 | 0.647 | 1.08 | 1.11 | 1.1 | 1.3 | 1.05 | 1.06 | 1.09 | 1.08 | 1.1 | 1.13
NCI-H661 | 0.4 | 0.411 | 0.433 | 0.458 | 0.392 | 0.708 | 0.824 | 0.662 | 0.695 | 0.794 | 1.07 | 1.04 | 0.943 | 1.03 | 1.11 | 0.585 | 0.506 | 0.59 | 0.672 | 0.418
NCI-H2228 | 0.718 | 0.644 | 0.804 | 0.725 | 0.659 | 0.828 | 1.09 | 1.16 | 1.1 | 0.997 | 0.971 | 0.84 | 0.993 | 1.04 | 0.76 | 0.589 | 0.54 | – | 0.707 | 0.585
NCI-H1975 | 0.539 | 0.542 | 0.593 | 0.585 | 0.61 | 0.377 | 0.41 | 0.367 | 0.414 | 0.307 | 0.779 | 0.897 | 0.846 | 1.08 | 0.73 | 0.902 | 0.801 | 0.897 | 0.803 | 0.902
NCI-H2087 | 0.244 | 0.196 | 0.183 | 0.281 | 0.212 | 0.567 | 0.809 | 0.786 | 0.834 | 0.512 | 1.08 | 1.14 | 1.1 | 1.12 | 0.969 | 0.918 | 1.03 | 0.831 | 0.922 | 0.911
LCLC-97TM1 | 0.188 | 0.21 | 0.224 | 0.209 | 0.254 | – | 0.356 | 0.627 | 0.754 | 0.291 | 0.942 | 0.96 | 0.899 | 0.956 | 0.983 | 0.197 | 0.171 | 0.171 | 0.171 | 0.136
EPLC-272H | 0.329 | 0.321 | 0.329 | 0.282 | 0.311 | 0.772 | 0.777 | 0.958 | 1.03 | 0.738 | 0.588 | 0.586 | 0.673 | 1 | 0.585 | 1.21 | 0.971 | 1.11 | 1.13 | 1.18
CAL-12T | 0.562 | 0.474 | 0.482 | 0.22 | 0.172 | 0.83 | – | – | 1.2 | 0.54 | 1.06 | 1.11 | 0.931 | 1.27 | 0.967 | 0.874 | 0.774 | 0.923 | 0.781 | 0.647
NCI-H1755 | 0.46 | 0.471 | 0.427 | 0.446 | 0.439 | 0.943 | 1.07 | 0.996 | 1.13 | 0.884 | 0.915 | 0.991 | 0.945 | 0.936 | 0.939 | 0.985 | 0.939 | 0.922 | 0.974 | 0.936
H3255 | 0.316 | 0.311 | 0.32 | 0.298 | 0.245 | 0.705 | 0.696 | 0.694 | 0.837 | 0.749 | 0.988 | 0.879 | 0.848 | 1.09 | 0.963 | 1.1 | 0.9 | 0.949 | 0.654 | 0.181
